Reference: patent US6444668B1 (Wyeth, priority 1999, dated 2002)
Where “and” joins values, the source holds several entries; their conditions need not be identical. Equal entries are not always repeated.

System: rat uterine decidualization
Assay: Rat decidualization assay
Assay type: in vivo
Conditions: dose 1 mg/kg, read-out: Decidualization, percentage inhibition at the dose specified
Procedure: 1. Rat Decidualization Assay
b. Animals (RACUC Protocol #5002)
The animals are treated once daily for seven days.
Uteri are removed and trimmed of fat.
Body weight: Mean total animal body weight (default-kg)
Decidual response: [(D-C)/C]x100%

| SMILES | inhibition at 1 mg/kg [%] |
| --- | --- |
| CC1(C)OC(=O)Nc2ccc(-c3ccc(F)c(C#N)c3)cc21 [Compound 1, 5-(4,4Dimethyl-2-oxo-1,4-dihydro-2H-benzo[d][1,3]oxazin-6-yl)-2-fluoro-benzonitrile] | 80 |

Same assay, conditions: s.c., average of dose-response curves

| SMILES | Estimated average EC50 (decidual response) [mg/kg] |
| --- | --- |
| C#C[C@]1(O)CC[C@H]2[C@@H]3CCC4=CC(=O)CC[C@@H]4[C@H]3C(=C)C[C@@]21CC [3-Ketodesogestrel, reference compound] | 0.10 |

Same assay, conditions: s.c., individual studies

| SMILES | Estimated EC50 for uterine wet weight (decidual response) |
| --- | --- |
| C#C[C@]1(O)CC[C@H]2[C@@H]3CCC4=CC(=O)CC[C@@H]4[C@H]3C(=C)C[C@@]21CC [3-Ketodesogestrel, reference compound] | 0.10 mg/kg and 0.06 mg/kg and 0.11 mg/kg |

System: not given
Assay: not given
Conditions: not given

| SMILES | melting point |
| --- | --- |
| COc1cc(F)cc(-c2ccc3c(c2)C(C)(C)OC(=O)N3)c1 [Example 82, 6-(3-Fluoro-5-methoxy-phenyl)-4,4-dimethyl-1,4-dihydro-benzo[d][1,3]oxazin-2-one] | 181 to 182 °C |
| CC(C)(C)OC(=O)N1C(=O)OC(C)(C)c2cc(-c3cc(F)cc(C#N)c3)ccc21 [Example 86, 6-(3-Cyano-5fluoro-phenyl)-4,4-dimethyl-2oxo-4H-benzo[d][1,3]oxazine-1-carboxylic acid tert-butyl ester] | 139 to 140 °C |
| CC1(C)OC(=O)Nc2c(F)cc(-c3csc(C#N)c3)cc21 [Example 88, 4-(8-Fluoro-4,4-dimethyl-2-oxo-1,4-dihydro-2H-benzo[d][1,3]oxazin-6-yl)-thiophene-2-carbonitrile] | 250 to 251 °C |
| CC1(C)OC(=O)Nc2c(F)cc(-c3cc(F)cc(C#N)c3)cc21 [Example 89, 3-Fluoro-5-(8-fluoro-4,4dimethyl-2-oxo-1,4-dihydro-2H-benzo[d][1,3]oxazin-6-yl)-benzonitrile] | 256 to 257 °C |
| CC1(C)OC(=O)Nc2ccc(-c3cc(C#N)cs3)cc21 [Example 90, 5-(4,4-Dimethyl-2-oxo-1,4-dihydro-2H-benzo[d][1,3]oxazin-6-yl)thiophene-3-carbonitrile] | 255 to 260 °C |
| CC(C)(C)OC(=O)n1c(-c2ccc3c(c2)C(C)(C)OC(=O)N3)ccc1[N+](=O)[O-] [Example 95, 2-(4,4Dimethyl-2-oxo-1,4-dihydro-2H-benzo[d][1,3]oxazin-6-yl)-5-nitro-pyrrole-1-carboxylic acid tert-butyl ester] | 125 °C |
| CC1(C)OC(=O)Nc2ccc(-c3ccc[nH]3)cc21 [Example 97, 4,4-Dimethyl-6-(1H-pyrrol-2yl)-1,4-dihydro-benzo[d][1,3]-oxazin-2one] | 202 °C (dec.) |
| Cn1cccc1-c1ccc2c(c1)C(C)(C)OC(=O)N2 [Example 98, 4,4-Dimethyl-6-(1-methyl-1H-pyrrol-2-yl)-1,4-dihydro-benzo[d][1,3]oxazin-2-one] | 230 °C |
| Cn1c(-c2ccc3c(c2)C(C)(C)OC(=O)N3)ccc1[N+](=O)[O-] [Example 99, 4,4-Dimethyl-6-(1-methyl-5-nitro-1H-pyrrol-2-yl)-1,4-dihydro-benzo [d][1,3]oxazin-2-one] | 180 to 185 °C |
| N#Cc1cccc(-c2ccc3c(c2)C2(CCCCC2)OC(=O)N3)c1 [Example 106, 3-(1,2-Dihydro-2-oxospiro[4H-3,1-benzoxazine-4,1-cyclohexan]-6-yl)-benzonitrile] | 245 to 247 °C |
| N#Cc1cc(F)cc(-c2ccc3c(c2)C2(CCCCC2)OC(=O)N3)c1 [Example 107, 3-(1,2-Dihydro-2-oxospiro[4H-3,1-benzoxazine-4,1-cyclohexan]-6-yl)-5-fluorobenzonitrile] | 250 to 253 °C |
| N#Cc1cc(-c2ccc3c(c2)C2(CCCCC2)OC(=O)N3)cs1 [Example 108, 4-(1,2-Dihydro-2-oxospiro[4H-3,1-benzoxazine-4,1-cyclohexan]-6-yl)2-thiophenecarbonitrile] | 230 to 232 °C |
| CCc1cc(C#N)sc1-c1ccc2c(c1)C(C)(C)OC(=O)N2 [Example 111, 5(4,4-Dimethyl-2-oxo-1,4-dihydro-2H-benzo[d][1,3]oxazin-6-yl)-4-ethyl-thiophene-2-carbonitrile] | 160 to 162 °C |
| CCCc1cc(C#N)sc1-c1ccc2c(c1)C(C)(C)OC(=O)N2 [Example 112, 5-(4,4-Dimethyl-2-oxo-1,4-dihydro-2H-benzo[d][1,3]oxazin-6-yl)4-n-propyl-thiophene-2-carbonitrile] | 160 to 162 °C |
| CCCCc1cc(C#N)sc1-c1ccc2c(c1)C(C)(C)OC(=O)N2 [Example 113, 5-(4,4-Dimethyl-2-oxo-1,4-dihydro-2H-benzo[d][1,3]oxazin-6-yl)4-n-butyl-thiophene-2-carbonitrile] | 167 to 168 °C |
| CC1(C)OC(=O)Nc2ccc(-c3cccc(CC#N)c3)cc21 [Example 118, 3-(4,4Dimethyl-2-oxo-1,4-dihydro-2H-benzo[d][1,3]-oxazin-6-yl)phenylacetonitrile] | 188 to 190 °C |
| CC1(C)OC(=O)Nc2ccc(-c3ccc(C#N)o3)cc21 [Example 119, 5-(4,4Dimethyl-2-oxo-1,4-dihydro-2H-benzo[d][1,3]oxazin-6-yl)-furan-2-carbonitrile] | 257 to 260 °C |
| CC1(C)OC(=O)Nc2ccc(-c3cccc(C#N)c3F)cc21 [Example 120, 3-(4,4-Dimethyl-2-oxo-1,4-dihydro-2H-benzo[d][1,3]oxazin-6-yl)-2fluoro-benzonitrile] | 192 to 198 °C |
| COc1cccc(-c2ccc3c(c2)C2(CCC2)OC(=O)N3)c1 [Example 122, 6-(3-Methoxyphenyl)spiro[4H-3,1-benzoxazine-4,1-cyclobutan]-2(1H)-one] | 145 to 146 °C |

| SMILES | melting point |
| --- | --- |
| CC1(C)OC(=O)Nc2c(Br)cc(-c3ccc(F)c(Cl)c3)cc21 [Example 123, 8-Bromo-6-(3-chloro-4-fluorophenyl)-4,4-dimethyl-1,4-dihydro-2H-3,1-benzoxazin-2-one] | 194 to 195 °C |
| CC1(C)OC(=O)Nc2c(Br)cc(-c3cc(F)cc(C#N)c3)cc21 [Example 124, 3-(8Bromo-4,4-dimethyl-2-oxo-1,4-dihydro-2H-3,1-benzoxazin-6-yl)-5-fluorobenzonitrile] | 216 to 217 °C |
| CC1(C)OC(=O)Nc2c(Br)cc(-c3ccc(F)c(C#N)c3)cc21 [Example 125, 5-(8-Bromo-4,4-dimethyl-2-oxo-1,4-dihydro-2H-3,1-benzoxazin-6-yl)-2-fluorobenzonitrile] | 235 to 236 °C |
| CN1C(=O)OC(C)(C)c2cc(-c3cccc(Br)c3)ccc21 [Example 126, 6-(3-Bromophenyl)-1,4,4-trimethyl-1,4-dihydro-2H-3,1-benzoxazin-2-one] | 142 to 143 °C |
| CC1OC(=O)Nc2ccc(-c3cccc(F)c3)cc21 (stereo not shown) [Example 127, 6-(3-Fluorophenyl)-4-methyl-1,4-dihydro-2H-3,1-benzoxazin-2-one] | 160 to 161 °C |
| COc1cc(-c2cc(F)cc(C#N)c2)cc2c1NC(=O)OC2(C)C [Example 128, 3-(4,4-Dimethyl-8-methoxy-2-oxo-1,4-dihydro-2H-3,1-benzoxazin-6-yl)-5-fluorobenzonitrile] | 252 to 253 °C |
| CC1(C)OC(=O)Nc2c(O)cc(-c3cc(F)cc(C#N)c3)cc21 [Example 129, 3-(4,4-Dimethyl-8-hydroxy-2-oxo-1,4-dihydro-2H-3,1-benzoxazin-6yl)-5-fluorobenzonitrile] | 197 to 198 °C |
| CC1(C)OC(=O)Nc2ccc(-c3cccc(F)c3F)cc21 [Example 130, 6-(2,3-Difluoro-phenyl)-4,4dimethyl-1,4-dihydro-benzo[d][1,3]oxazin-2-one] | 166 to 167 °C |
| CCN1C(=O)OC(C)(C)c2cc(-c3cc(F)cc(C#N)c3)ccc21 [Example 131, 3-(1-Ethyl-4,4-dimethyl-2-oxo-1,4-dihydro-2H-benzo[d][1,3]oxazin-6-yl)-5-fluoro-benzonitrile] | 154 to 155 °C |
| CC1(C)OC(=O)Nc2ccc(-c3cccc(CC#N)n3)cc21 [Example 132, [6-(4,4-dimethyl-2-oxo-1,4dihydro-2H-3,1-benzoxazin-6-yl)pyridin-2-yl]acetonitrile] | 210 to 212.5 °C |
| CC1(C)OC(=O)Nc2ccc(-c3cc(F)cc(CC#N)c3)cc21 [Example 133, 3-(4,4Dimethyl-2-oxo-1,4-dihydro-2H-benzo[d][1,3]-oxazin-6-yl)-5-fluoro-phenylacetonitrile] | 218 to 220 °C |
| CC1(C)OC(=O)Nc2ccc(-c3cc(CC#N)ccc3F)cc21 [Example 134, 3-(4,4-Dimethyl-2-oxo-1,4-dihydro2H-benzo[d][1,3]-oxazin-6-yl)-4-fluoro-phenylacetonitrile] | 184 to 187 °C |
| CC1(C)OC(=O)Nc2ccc(-c3ccc(CC#N)c(F)c3)cc21 [Example 135, 4-(4,4Dimethyl-2-oxo-1,4-dihydro-2H-benzo[d][1,3]oxazin-6yl)-2-fluorophenylacetonitrile] | 253 to 256 °C |
| CC1(C)OC(=O)Nc2ccc(-c3ccccc3CC#N)cc21 [Example 136, 2-(4,4-Dimethyl 2-oxo-1,4-dihydro-2H-benzo[d][1,3]-oxazin-6-yl)phenylacetonitrile] | 176 to 179 °C |
| CC(=O)Nc1ccc(-c2ccc3c(c2)C(C)(C)OC(=O)N3)cc1F [Example 137, N-[4-(4,4-Dimethyl-2-oxo-1,4-dihydro-2H-3,1-benzoxazin-6-yl)-2fluoro-phenyl]-acetamide] | 245 to 247 °C |
| COc1ccc(-c2ccc3c(c2)C(C)(C)OC(=O)N3)cc1F [Example 138, 6-(3-Fluoro-4-methoxy-phenyl)4,4-dimethyl-1,4-dihydro-benzo[d][1,3]-oxazin-2-one] | 210 to 211 °C |
| CC1(C)OC(=O)Nc2ccc(-c3ccc(N)nc3)cc21 [Example 142, 6-(6-Amino-pyridin-3-yl)-4,4-dimethyl-1,4-dihydro-benzo[d][1,3]oxazine-2-one] | 257 to 259 °C |
| CC1(C)OC(=O)Nc2ccc(-c3coc(C=O)c3)cc21 [Example 144, 4-(4,4-Dimethyl-2-oxo-1,4-dihydro-2H-benzo[d][1,3]oxazin-6-yl)-furan-2-carbaldehyde] | 262 to 263 °C |
